Experimental data taken from PMC9377006, “Discovery of Desmuramylpeptide NOD2 Agonists with Single-Digit Nanomolar Potency” (ACS Medicinal Chemistry Letters, 2022).

Key:
[1] = tested on: PBMCs; test: Cytokine release from peripheral blood mononuclear cells; type: cell-based; conditions: human PBMCs
Description: Encouraged by the potent NOD2 activity of 40, we preliminarily evaluated its immunostimulatory potential in human primary peripheral blood mononuclear cells (PBMCs). Specifically, we first investigated the ability of 40 to induce cytokine production in PBMCs. While activation of NOD2 alone is sufficient to elicit cytokine responses, these responses are usually of low intensity. However, NOD2 agonists can act in synergy with ligands of other innate immune receptors and proinflammatory cytokines to induce considerably stronger responses. We were particularly intrigued by the synergistic interactions between NOD2, TLR4, and IFN-γ. The synergy between NOD2 agonists and TLR4 agonists in terms of cytokine secretion, including IFN-γ, is well-established.[29],[30] Similarly, IFN-γ has previously been reported to augment the MDP-mediated activation and cytokine production by dendritic cells and macrophages.[31],[32]
Figure 2 Synergistic effects of 40 with LPS and IFN-γ on induction of cytokine production from PBMCs. Cytokine concentrations were measured after 18 h of stimulation with NOD2 agonists (1 μM) in the presence or absence of LPS (10 ng/mL) and IFN-γ (200 U/mL) or the corresponding vehicle (0.1% DMSO; NT). Data are expressed as mean ± SEM of three independent experiments. Statistical significance was determined by one-way ANOVA followed by Bonferroni’s multiple-comparisons test; *, p < 0.05, **, p < 0.01, ***, p < 0.001 versus vehicle-treated control; ##, p < 0.01, ###, p < 0.001 versus 40 or LPS alone.
Figure S5. The effect of 40 on the production of cytokines from human PBMCs is NOD2 -dependent. PBMCs were pre-incubated for 1 h in the presence or absence of the NOD2 antagonist SG84 (10 µM), before the addition of 40 (1 µM). Cytokine concentrations in supernatants were measured after 18 h stimulation.
Data are expressed as mean s ± SEM of 3 independent experiments. Statistical significance was determined by one-way ANOVA followed by Bonferroni’s multiple comparisons test; **, p < 0.01, ***, p < 0.001. […]
4.9 Cytokine release from peripheral blood mononuclear cells
Peripheral blood mononuclear cells were seeded ( 500,000 cells/well) in 24-well plates in 500 µL growth medium and treated with MDP (1 µM), 2 (1 µM), or 40 (1 µM), in the presence or absence of LPS (10 ng/mL) or IFN-γ (200 U/mL), or the corresponding vehicle (0.1% DMSO). In some wells, PBMCs were pre-treated for 1 h with the NOD2 antagonist SG84 (10 µM), before the addition of 40 (1 µM). Cell-free supernatants were collected after 18 h of incubation (37 °C, 5% CO2) and stored at -80 °C until tested.
Cytokine production was determined with BD Cytometric Bead Array human inflammatory cytokines kit (BD Bioscience) on an Attune NxT flow cytometer (Thermo Fisher Scientific, Waltham, MA, USA). Standard curves were generated using recombinant cytokines contained in the kit. The data were analyzed using the FlowJo (Tree Star, Inc., Ashland, OR, USA) and Prism (GraphPad, San Diego, CA, USA) software.

[2] = tested on: RAW-Blue cells; test: NF-κB transcriptional response in RAW-Blue reporter cells; type: cell-based, mouse; conditions: 1 µM, 18 h, with or without NOD2 antagonist SG84 10 µM
Description: Given that cells of the monocyte-macrophage lineage are among the primary responders to NOD2 stimuli,[28] we also examined the effect of 40 on the NF-κB transcriptional response in RAW-Blue reporter cells. These cells, which, similarly to the HEK-Blue cells described above, stably express an NF-κB-inducible SEAP reporter gene, are derived from RAW264.7 mouse macrophages, which in addition to NOD2 also express NOD1 and most Toll-like receptors (TLRs).
Figure S4. NF-kB transcriptional response in the RAW-Blue mouse macrophage reporter cell line. […] Statistical significance was determined by one-way ANOVA followed by Bonferroni’s multiple comparisons test; ***, p < 0.001 versus vehicle-treated control; ###, p < 0.001 versus MDP, 40, or LPS alone; ns, not significant. […]
RAW-Blue cells were seeded (100,000 cells/well) in 96 -well plates in 200 µL growth medium (without Normocin and Zeocin) and treated with MDP (1 µM) or 40 (1 µM), in the presence or absence of LPS ( 10 ng/mL), or the corresponding vehicle (0.1% DMSO). […] After 2 h of incubation (37 °C), SEAP activity was determined spectrophotometrically as absorbance at 630 nm (BioTek Synergy microplate reader; Winooski, VT, USA). […]
Cytokine production was determined with BD Cytometric Bead Array human inflammatory cytokines kit […]

In the case of `CCOC(=O)CC[C@@H](NC(=O)[C@@H](NC(=O)CNC(=O)/C=C/c1ccc(OC(=O)CC23CC4CC(CC(C4)C2)C3)c(OC)c1)C(C)C)C(=O)OCC` [Compound 40], the “production of IL-1β, IL-6 and TNF-α in combination with IFN-γ” value ([1]; 1 μM + IFN-γ 200 U/mL, 18 h) is reported as “synergistically increased”, the “production of IL-8 in combination with IFN-γ” value ([1]; 1 μM + IFN-γ 200 U/mL, 18 h) is reported as “no apparent effect” and the “production of IL-1β, IL-6 and TNF-α in combination with LPS” value ([1]; 1 μM + LPS 10 ng/mL, 18 h) is reported as “superadditive manner”. The “NOD2 dependence of cytokine production” value ([1]; 40 1 µM, pretreatment with NOD2 antagonist SG84 10 µM) was “entirely NOD2-dependent”, the “production of IL-1β, IL-6, IL-8 and TNF-α, stimulant alone” value ([1]; 18 h, NOD2 agonists 1 μM, LPS 10 ng/mL, IFN-γ 200 U/mL) was “modest production” and the “activation of RAW-Blue cells (NF-κB transcriptional response)” value [2] was “activate RAW-Blue cells in a NOD2-dependent manner”.
